# In PubChem BioAssay AID1963827 (Molecular Pharmacology Branch, DTP, NCI, 2024):
# Test system: 994946-033-R-J1-PDC complex spheroid viability
# Assay: Anticancer human tumor 994946-033-R-J1-PDC patient-derived melanoma cell line growth inhibition [POLQ]
# Conditions: for IC50: curve of first compound; for viability, T/C: stronger effect = lower value
# Procedure, shortened: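 Complex spheroid viability model combining PDC tumour cells with endothelial (HUVEC) and MSC stromal cells. Novobiocin, ART-558 or RP6685 were tested singly and in combination with standard and investigational anticancer drugs. Each was titrated in half-log steps from near clinical Cmax, or from 10 microM where Cmax was unknown.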
# [1] = second compound 0.0316 µM, first compound 0.0316 µM
# [2] = second compound 0.0316 µM, first compound 0.1 µM
# [3] = second compound 0.0316 µM, first compound 0.316 µM
# [4] = second compound 0.0316 µM, first compound 1 µM
# [5] = second compound 0.0316 µM, first compound 3.16 µM
# [6] = second compound 0.0316 µM, first compound 10 µM
# [7] = second compound 0.1 µM, first compound 0.0316 µM
# [8] = second compound 0.1 µM, first compound 0.1 µM
# [9] = second compound 0.1 µM, first compound 0.316 µM
# [10] = second compound 0.1 µM, first compound 1 µM
# [11] = second compound 0.1 µM, first compound 3.16 µM
# [12] = second compound 0.1 µM, first compound 10 µM
# [13] = second compound 0.316 µM, first compound 0.0316 µM
# [14] = second compound 0.316 µM, first compound 0.1 µM
# [15] = second compound 0.316 µM, first compound 0.316 µM
# [16] = second compound 0.316 µM, first compound 1 µM
# [17] = second compound 0.316 µM, first compound 3.16 µM
# [18] = second compound 0.316 µM, first compound 10 µM
# [19] = second compound 1 µM, first compound 0.0316 µM
# [20] = second compound 1 µM, first compound 0.1 µM
# [21] = second compound 1 µM, first compound 0.316 µM
# [22] = second compound 1 µM, first compound 1 µM
# [23] = second compound 1 µM, first compound 3.16 µM
# [24] = second compound 1 µM, first compound 10 µM
# [25] = second compound 3.16 µM, first compound 0.0316 µM
# [26] = second compound 3.16 µM, first compound 0.1 µM
# [27] = second compound 3.16 µM, first compound 0.316 µM
# [28] = second compound 3.16 µM, first compound 1 µM
# [29] = second compound 3.16 µM, first compound 3.16 µM
# [30] = second compound 3.16 µM, first compound 10 µM
# [31] = second compound 10 µM, first compound 0.0316 µM
# [32] = second compound 10 µM, first compound 0.1 µM
# [33] = second compound 10 µM, first compound 0.316 µM
# [34] = second compound 10 µM, first compound 1 µM
# [35] = second compound 10 µM, first compound 3.16 µM
# [36] = second compound 10 µM, first compound 10 µM
# 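Further: spheroids exposed to drugs for 7 days.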
# 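Wherever viability, T/C is given: 100% = DMSO vehicle treated spheroids.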
smiles,measurement,setting,value
CC1COCCN1c1cc(C2(O)CC3CCC(C2)O3)c2cnn(-c3ccn[nH]3)c2n1 (stereo not drawn) + Cc1cccc(N(C)C(=O)C2C(O)CCN2c2nc(C)cc(C(F)(F)F)c2C#N)c1,IC50,second compound 0.0316 µM,< 31.6 nM
same,IC50,second compound 0.1 µM,37.9 nM
same,IC50,second compound 0.316 µM,< 31.6 nM
same,IC50,second compound 1 µM,< 31.6 nM
same,IC50,second compound 3.16 µM,33.3 nM
same,IC50,second compound 10 µM,< 31.6 nM
same,"viability, T/C",[1],49.5%
same,"viability, T/C",[2],34.5%
same,"viability, T/C",[3],14.3%
same,"viability, T/C",[4],15.3%
same,"viability, T/C",[5],14.6%
same,"viability, T/C",[6],5.33%
same,"viability, T/C",[7],52.7%
same,"viability, T/C",[8],37%
same,"viability, T/C",[9],18.8%
same,"viability, T/C",[10],12.3%
same,"viability, T/C",[11],12%
same,"viability, T/C",[12],4%
same,"viability, T/C",[13],46.8%
same,"viability, T/C",[14],26.4%
same,"viability, T/C",[15],14.6%
same,"viability, T/C",[16],18.4%
same,"viability, T/C",[17],12.7%
same,"viability, T/C",[18],2.62%
same,"viability, T/C",[19],42%
same,"viability, T/C",[20],23.1%
same,"viability, T/C",[21],20.9%
same,"viability, T/C",[22],17%
same,"viability, T/C",[23],12.5%
same,"viability, T/C",[24],3.16%
same,"viability, T/C",[25],51.6%
same,"viability, T/C",[26],27.2%
same,"viability, T/C",[27],23.2%
same,"viability, T/C",[28],13.5%
same,"viability, T/C",[29],12.7%
same,"viability, T/C",[30],10.9%
same,"viability, T/C",[31],47.1%
same,"viability, T/C",[32],38.4%
same,"viability, T/C",[33],18.7%
same,"viability, T/C",[34],23%
same,"viability, T/C",[35],9.14%
same,"viability, T/C",[36],5.05%
COc1cc(C2c3cc4c(cc3C(OC3OC5COC(C)OC5C(O)C3O)C3COC(=O)C23)OCO4)cc(OC)c1O (stereo not drawn) + Nc1ccc(C#CCN(C(=O)Cc2ncc(C(F)(F)F)cc2C(F)(F)F)c2ccc(F)cc2)nn1,IC50,second compound 0.0316 µM,725 nM
same,IC50,second compound 0.1 µM,348 nM
same,IC50,second compound 0.316 µM,363 nM
same,IC50,second compound 1 µM,395 nM
same,IC50,second compound 3.16 µM,369 nM
same,IC50,second compound 10 µM,879 nM
same,"viability, T/C",[1],70.3%
same,"viability, T/C",[2],67.4%
same,"viability, T/C",[3],68.8%
same,"viability, T/C",[4],42%
same,"viability, T/C",[5],19.9%
same,"viability, T/C",[6],8.78%
same,"viability, T/C",[7],86.1%
same,"viability, T/C",[8],73.3%
same,"viability, T/C",[9],42.3%
same,"viability, T/C",[10],43%
same,"viability, T/C",[11],16.5%
same,"viability, T/C",[12],6.05%
same,"viability, T/C",[13],87.1%
same,"viability, T/C",[14],69.9%
same,"viability, T/C",[15],54%
same,"viability, T/C",[16],32.4%
same,"viability, T/C",[17],20.6%
same,"viability, T/C",[18],9.78%
same,"viability, T/C",[19],111%
same,"viability, T/C",[20],77%
same,"viability, T/C",[21],55.1%
same,"viability, T/C",[22],35.4%
same,"viability, T/C",[23],17.9%
same,"viability, T/C",[24],10.3%
same,"viability, T/C",[25],84.8%
same,"viability, T/C",[26],70.5%
same,"viability, T/C",[27],48%
same,"viability, T/C",[28],41.3%
same,"viability, T/C",[29],15.3%
same,"viability, T/C",[30],5.78%
same,"viability, T/C",[31],77.2%
same,"viability, T/C",[32],70.4%
same,"viability, T/C",[33],58.7%
same,"viability, T/C",[34],53.3%
same,"viability, T/C",[35],14.5%
same,"viability, T/C",[36],7.34%
C=CC(=O)N1CCN(c2nc(=O)n(-c3c(C)ccnc3C(C)C)c3nc(-c4c(O)cccc4F)c(F)cc23)C(C)C1 (stereo not drawn) + Cc1cccc(N(C)C(=O)C2C(O)CCN2c2nc(C)cc(C(F)(F)F)c2C#N)c1,IC50,second compound 0.0316 µM,> 10000 nM
same,IC50,second compound 0.1 µM,> 10000 nM
same,IC50,second compound 0.316 µM,> 10000 nM
same,IC50,second compound 1 µM,> 10000 nM
same,IC50,second compound 3.16 µM,> 10000 nM
same,IC50,second compound 10 µM,> 10000 nM
same,"viability, T/C",[1],75.8%
same,"viability, T/C",[2],101%
same,"viability, T/C",[3],112%
same,"viability, T/C",[4],126%
same,"viability, T/C",[5],110%
same,"viability, T/C",[6],132%
same,"viability, T/C",[7],94.5%
same,"viability, T/C",[8],118%
same,"viability, T/C",[9],129%
same,"viability, T/C",[10],123%
same,"viability, T/C",[11],119%
same,"viability, T/C",[12],113%
same,"viability, T/C",[13],115%
same,"viability, T/C",[14],114%
same,"viability, T/C",[15],94.2%
same,"viability, T/C",[16],140%
same,"viability, T/C",[17],123%
same,"viability, T/C",[18],93.8%
same,"viability, T/C",[19],113%
same,"viability, T/C",[20],109%
same,"viability, T/C",[21],91.1%
same,"viability, T/C",[22],107%
same,"viability, T/C",[23],90.2%
same,"viability, T/C",[24],93.9%
same,"viability, T/C",[25],130%
same,"viability, T/C",[26],104%
same,"viability, T/C",[27],132%
same,"viability, T/C",[28],119%
same,"viability, T/C",[29],105%
same,"viability, T/C",[30],129%
same,"viability, T/C",[31],84.7%
same,"viability, T/C",[32],101%
same,"viability, T/C",[33],105%
same,"viability, T/C",[34],115%
same,"viability, T/C",[35],96.3%
same,"viability, T/C",[36],106%
C=CCn1c(=O)c2cnc(Nc3ccc(N4CCN(C)CC4)cc3)nc2n1-c1cccc(C(C)(C)O)n1 + Nc1ccc(C#CCN(C(=O)Cc2ncc(C(F)(F)F)cc2C(F)(F)F)c2ccc(F)cc2)nn1,IC50,second compound 0.0316 µM,837 nM
same,IC50,second compound 0.1 µM,444 nM
same,IC50,second compound 0.316 µM,397 nM
same,IC50,second compound 1 µM,780 nM
same,IC50,second compound 3.16 µM,712 nM
same,IC50,second compound 10 µM,643 nM
same,"viability, T/C","second compound 0.0316 µM, first compound 0.00316 µM",70.3%
same,"viability, T/C","second compound 0.0316 µM, first compound 0.01 µM",122%
same,"viability, T/C",[1],80%
same,"viability, T/C",[2],95.6%
same,"viability, T/C",[3],91.8%
same,"viability, T/C",[4],42.4%
same,"viability, T/C","second compound 0.1 µM, first compound 0.00316 µM",81%
same,"viability, T/C","second compound 0.1 µM, first compound 0.01 µM",107%
same,"viability, T/C",[7],97.8%
same,"viability, T/C",[8],103%
same,"viability, T/C",[9],59.2%
same,"viability, T/C",[10],28%
same,"viability, T/C","second compound 0.316 µM, first compound 0.00316 µM",101%
same,"viability, T/C","second compound 0.316 µM, first compound 0.01 µM",124%
same,"viability, T/C",[13],105%
same,"viability, T/C",[14],81.7%
same,"viability, T/C",[15],60.2%
same,"viability, T/C",[16],20.6%
same,"viability, T/C","second compound 1 µM, first compound 0.00316 µM",123%
same,"viability, T/C","second compound 1 µM, first compound 0.01 µM",100%
same,"viability, T/C",[19],147%
same,"viability, T/C",[20],109%
same,"viability, T/C",[21],100%
same,"viability, T/C",[22],36.2%
same,"viability, T/C","second compound 3.16 µM, first compound 0.00316 µM",109%
same,"viability, T/C","second compound 3.16 µM, first compound 0.01 µM",105%
same,"viability, T/C",[25],120%
same,"viability, T/C",[26],85%
same,"viability, T/C",[27],84.9%
same,"viability, T/C",[28],36.4%
same,"viability, T/C","second compound 10 µM, first compound 0.00316 µM",106%
same,"viability, T/C","second compound 10 µM, first compound 0.01 µM",82.5%
same,"viability, T/C",[31],94.8%
same,"viability, T/C",[32],95.4%
same,"viability, T/C",[33],67.4%
same,"viability, T/C",[34],39.1%
